Measured values taken from ChEMBL document CHEMBL4371008, “Monoacylglycerol Acyltransferase 2 (MGAT2) Inhibitors for the Treatment of Metabolic Diseases and Nonalcoholic Steatohepatitis (NASH)” (J Med Chem, 2018).

Tests used:
Mus musculus [1] = assay: Inhibition of corn oil-induced plasma triacylglycerol excursion in C57BL/6J mouse at 30 mg/kg administered via oral gavage 30 mins prior to corn oil challenge measured after 6 hrs by oral lipid tolerance test relative to control; type: functional
Mus musculus [2] = assay: Decrease in insulin level in high sucrose, very low fat diet fed mouse model of fatty liver at 100 mg/kg relative to control; type: functional; design: scale not given: the % may be the effect or the level left
Mus musculus [3] = assay: Decrease in insulin level in high sucrose, very low fat diet fed mouse model of fatty liver at 30 mg/kg relative to control; type: functional; design: scale not given: the % may be the effect or the level left
Homo sapiens = species on record: Homo sapiens; assay: Selectivity ratio of IC50 for human MGAT3 to IC50 for human MGAT2
[4] = target: T1, Diacylglycerol O-acyltransferase 2 (Homo sapiens, UniProt Q96PD7); assay: Inhibition of recombinant human DGAT2
T1 sequence (Q96PD7 whole entry): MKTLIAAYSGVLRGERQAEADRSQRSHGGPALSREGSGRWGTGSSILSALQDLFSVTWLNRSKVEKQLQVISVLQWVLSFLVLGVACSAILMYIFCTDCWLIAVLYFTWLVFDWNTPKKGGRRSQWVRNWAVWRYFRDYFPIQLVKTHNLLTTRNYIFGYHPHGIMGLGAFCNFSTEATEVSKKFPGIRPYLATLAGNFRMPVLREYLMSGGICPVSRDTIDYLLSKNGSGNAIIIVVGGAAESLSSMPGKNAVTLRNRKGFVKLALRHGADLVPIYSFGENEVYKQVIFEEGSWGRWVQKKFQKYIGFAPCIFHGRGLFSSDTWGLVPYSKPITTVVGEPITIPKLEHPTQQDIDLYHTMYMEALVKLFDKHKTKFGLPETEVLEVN

Mus musculus [5] = assay: Inhibition of plasma triacylglycerol excursion in mouse at 30 mg/kg relative to control; type: functional
Mus musculus [6] = assay: Inhibition of plasma triacylglycerol excursion in mouse at 10 mg/kg relative to control; type: functional
Mus musculus [7] = assay: Inhibition of corn oil-induced plasma chylomicron triacylglycerol excursion in C57BL/6J mouse at 30 mg/kg, ip treated 16 hrs prior to liquid meal challenge measured up to 4 hrs by oral meal tolerance test relative to control; type: functional
[8] = Ratio of plasma concentration in corn oil-treated C57BL/6J mouse at 30 mg/kg, ip to IC50 for mouse MGAT2; type: ADME, organism-based; conditions: in vivo
Mus musculus [9] = assay: Anorectic effect in fasting high fat diet fed C57BL/6J mouse assessed as reduction in food intake at 30 mg/kg, po for 37 days followed by high fat diet feeding for 2 hrs relative to control; type: functional; design: scale not given: the % may be the effect or the level left
[10] = Oral bioavailability in rat; type: ADME, organism-based; conditions: in vivo
[11] = Oral bioavailability in mouse; type: ADME, organism-based; conditions: in vivo

**Q.** With `O=C(CNCCCCCOc1ccc(C(F)(F)F)cc1)N1CCc2nc(SC3CCC3)n(-c3ccccc3)c(=O)c2C1` as the compound, how does the inhibition in vivo at 30 mg/kg (Mus musculus [1]) read?
**A.** Its inhibition in vivo at 30 mg/kg is 42%.

**Q.** For `O=C(CCNCC1COc2ccccc2O1)N1CCc2nc(SC3CCC3)n(-c3ccccc3)c(=O)c2C1` (stereo not drawn), which inhibition in vivo at 30 mg/kg (Mus musculus [1]) is on record?
**A.** Its inhibition in vivo at 30 mg/kg is 42%.

**Q.** For `CC(C)(C)c1cc(C(C)(C)C)nc(N2CCn3c(nnc3-c3ccc(OC(F)(F)F)cc3)C2)n1`, which Activity (Mus musculus [2]) is on record?
**A.** Its Activity is 51%.

**Q.** What about the Activity (Mus musculus [3]) of the same compound?
**A.** Its Activity is 57%.

**Q.** What about the Ratio IC50 (Homo sapiens) of the same compound?
**A.** The Ratio IC50 was 300.

**Q.** And the IC50 [4]?
**A.** Its IC50 is over 30 µM.

**Q.** What does the source list for `CC(C)(C)C1CCN(Cc2ccc([C@H](NS(C)(=O)=O)C(F)(F)F)cc2)CC1`?
**A.** inhibition in vivo at 30 mg/kg (Mus musculus [5]): 100%; inhibition in vivo at 10 mg/kg (Mus musculus [6]): 69%

**Q.** What does the source list for `Cn1nc(C(F)(F)F)cc1-c1cnc(N2CCc3cc(S(=O)(=O)Nc4c(F)cc(Cl)cc4F)cc(N4CCCC4=O)c32)nc1` [TP-020]?
**A.** inhibition in vivo at 30 mg/kg (Mus musculus [7]): 58%; Ratio [8]: 1000; Activity (Mus musculus [9]): 59%

**Q.** With `CCC1(C)NC(=O)c2cc(S(=O)(=O)Nc3ccc(F)cc3F)cc(Cl)c2NC1=O` (stereo not drawn) as the compound, how does the bioavailability [10] read?
**A.** Its bioavailability is 74%.

**Q.** And the bioavailability [11]?
**A.** Its bioavailability is 69%.
